Legend:
[1] = tested on: greenhouse red spider mite (Tetranychus urticae); experiment: Tetranychus urticae spray test, OP-resistant (TETRUR), bean plants; assay type: in vivo; details: 168 h, 7 dat
Description: Tetranychus urticae—Spray Test, OP-resistant (TETRUR) • Solvent: 7 parts by weight of dimethylformamide • Emulsifier: 2 parts by weight of alkylaryl polyglycol ether
(§1) To produce a suitable preparation of active compound, 1 part by weight of active compound is mixed with the stated amounts of solvent and emulsifier, and the concentrate is diluted with emulsifier-containing water to the desired concentration. If the addition of ammonium salts or/and penetrants is required, these are in each case added in a concentration of 1000 ppm to the solution of the preparation.
Bean plants (Phaseolus vulgaris) which are heavily infested by all stages of the greenhouse red spider mite (Tetranychus urticae) are sprayed with an active compound preparation of the desired concentration.
(§2) After the desired period of time, the effect in % is determined. 100% means that all of the spider mites have been killed; 0% means that none of the spider mites have been killed.

[2] = tested on: greenhouse red spider mite (Tetranychus urticae); experiment: Tetranychus urticae drench test, OP-resistant, systemic treatment (TETRUR sys.); assay type: in vivo; details: soil, 336 h, 14 dat
Description: Tetranychus urticae—Drench Test, OP-resistant, systemic treatment (TETRUR sys.)
• Solvent: 7 parts by weight of dimethylformamide • Emulsifier: 2 parts by weight of alkylaryl polyglycol ether
as §1, with “with” for “with emulsifier-containing”
Bean plants (Phaseolus vulgaris) which are heavily infested by all stages of the greenhouse red spider mite (Tetranychus urticae) are watered with an active compound preparation of the desired concentration.
as §2

SMILES	inhibition at 20 ppm [1] [%]	inhibition at 20 ppm [2] [%]
CC(=O)NCc1cc(NC(=O)c2c(C(F)(F)F)c(C(F)(F)C(F)(F)F)nn2C)ccc1F [Example 13]	30	90
CCNC(=O)c1cc(NC(=O)c2c(C(F)(F)F)c(C(F)(F)C(F)(F)F)nn2C)ccc1Cl [Example Ik-66, reference compound]	0	30

From patent US9204645B2, “Insecticidal aromatic amides” (BAYER INTELLECTUAL PROPERTY GMBH, priority 2011, dated 2015)
